Reference: PubChem BioAssay AID1963851 (Molecular Pharmacology Branch, DTP, NCI, 2024)

Test system: 188146-221-R-J1-PDC complex spheroid viability
Assay: Anticancer human tumor 188146-221-R-J1-PDC patient-derived colon adenocarcinoma cell line growth inhibition [POLQ]
Conditions: for IC50: curve of first compound; for viability, T/C: stronger effect = lower value
In short: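 PDC + HUVEC + MSC complex spheroids; POLQ inhibitors ± partner drugs; top conc. at/near clinical Cmax, else 10 microM (SN-38 1 microM), half-log dilutions; 37 degrees C, 5% CO2.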

[1] = second compound 0.0316 µM, first compound 0.0316 µM
[2] = second compound 0.0316 µM, first compound 0.1 µM
[3] = second compound 0.0316 µM, first compound 0.316 µM
[4] = second compound 0.0316 µM, first compound 1 µM
[5] = second compound 0.0316 µM, first compound 3.16 µM
[6] = second compound 0.0316 µM, first compound 10 µM
[7] = second compound 0.1 µM, first compound 0.0316 µM
[8] = second compound 0.1 µM, first compound 0.1 µM
[9] = second compound 0.1 µM, first compound 0.316 µM
[10] = second compound 0.1 µM, first compound 1 µM
[11] = second compound 0.1 µM, first compound 3.16 µM
[12] = second compound 0.1 µM, first compound 10 µM
[13] = second compound 0.316 µM, first compound 0.0316 µM
[14] = second compound 0.316 µM, first compound 0.1 µM
[15] = second compound 0.316 µM, first compound 0.316 µM
[16] = second compound 0.316 µM, first compound 1 µM
[17] = second compound 0.316 µM, first compound 3.16 µM
[18] = second compound 0.316 µM, first compound 10 µM
[19] = second compound 1 µM, first compound 0.0316 µM
[20] = second compound 1 µM, first compound 0.1 µM
[21] = second compound 1 µM, first compound 0.316 µM
[22] = second compound 1 µM, first compound 1 µM
[23] = second compound 1 µM, first compound 3.16 µM
[24] = second compound 1 µM, first compound 10 µM
[25] = second compound 3.16 µM, first compound 0.0316 µM
[26] = second compound 3.16 µM, first compound 0.1 µM
[27] = second compound 3.16 µM, first compound 0.316 µM
[28] = second compound 3.16 µM, first compound 1 µM
[29] = second compound 3.16 µM, first compound 3.16 µM
[30] = second compound 3.16 µM, first compound 10 µM
[31] = second compound 10 µM, first compound 0.0316 µM
[32] = second compound 10 µM, first compound 0.1 µM
[33] = second compound 10 µM, first compound 0.316 µM
[34] = second compound 10 µM, first compound 1 µM
[35] = second compound 10 µM, first compound 3.16 µM
[36] = second compound 10 µM, first compound 10 µM
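Further: spheroids exposed to compounds for seven days.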
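Wherever viability, T/C is given: 100% = DMSO vehicle control viability.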

`C#Cc1c(F)ccc2cc(O)cc(-c3ncc4c(N5CC6CCC(C5)N6)nc(OCC56CCCN5CC(F)C6)nc4c3F)c12` (centres undefined) + Cc1cccc(N(C)C(=O)C2C(O)CCN2c2nc(C)cc(C(F)(F)F)c2C#N)c1 was tested, and the IC50 (second compound 0.0316 µM) was over 10 µM, the IC50 (second compound 0.1 µM) was over 10 µM and the IC50 (second compound 0.316 µM) was over 10 µM. It also gave an IC50 (second compound 1 µM) of over 10 µM, an IC50 (second compound 3.16 µM) of over 10 µM and an IC50 (second compound 10 µM) of over 10 µM. The viability, T/C [1] was 104%, the viability, T/C [2] was 105% and the viability, T/C [3] was 104%. It also gave a viability, T/C [4] of 97.9%, a viability, T/C [5] of 88.6% and a viability, T/C [6] of 90.6%. It also gave a viability, T/C [7] of 101%, a viability, T/C [8] of 112% and a viability, T/C [9] of 101%. The viability, T/C [10] was 95.5%, the viability, T/C [11] was 96% and the viability, T/C [12] was 92.6%. The viability, T/C [13] was 108%, the viability, T/C [14] was 106% and the viability, T/C [15] was 96.9%. The viability, T/C [16] was 85.3%, the viability, T/C [17] was 93.2% and the viability, T/C [18] was 84.1%. For the same compound, the viability, T/C [19] was 111%, the viability, T/C [20] was 101% and the viability, T/C [21] was 94.9%. It also gave a viability, T/C [22] of 93.4%, a viability, T/C [23] of 89.8% and a viability, T/C [24] of 85.5%. For the same compound, the viability, T/C [25] was 99.7%, the viability, T/C [26] was 98.2% and the viability, T/C [27] was 96.8%. For the same compound, the viability, T/C [28] was 74.9%, the viability, T/C [29] was 95.8% and the viability, T/C [30] was 98.2%. It also gave a viability, T/C [31] of 107%, a viability, T/C [32] of 75% and a viability, T/C [33] of 99.8%. For the same compound, the viability, T/C [34] was 90%, the viability, T/C [35] was 88.6% and the viability, T/C [36] was 78.3%.
In the case of `C=CC(=O)N1CCN(c2nc(=O)n(-c3c(C)ccnc3C(C)C)c3nc(-c4c(O)cccc4F)c(F)cc23)C(C)C1` (centres undefined) + Cc1cccc(N(C)C(=O)C2C(O)CCN2c2nc(C)cc(C(F)(F)F)c2C#N)c1, the IC50 (second compound 0.0316 µM) is reported as over 10 µM, the IC50 (second compound 0.1 µM) is reported as over 10 µM and the IC50 (second compound 0.316 µM) is reported as over 10 µM. For the same compound, the IC50 (second compound 1 µM) was over 10 µM, the IC50 (second compound 3.16 µM) was over 10 µM and the IC50 (second compound 10 µM) was over 10 µM. The viability, T/C [1] was 104%, the viability, T/C [2] was 103% and the viability, T/C [3] was 93%. The viability, T/C [4] was 107%, the viability, T/C [5] was 97% and the viability, T/C [6] was 83.8%. It also gave a viability, T/C [7] of 108%, a viability, T/C [8] of 105% and a viability, T/C [9] of 91.9%. For the same compound, the viability, T/C [10] was 103%, the viability, T/C [11] was 92.8% and the viability, T/C [12] was 89%. It also gave a viability, T/C [13] of 101%, a viability, T/C [14] of 105% and a viability, T/C [15] of 103%. For the same compound, the viability, T/C [16] was 95.5%, the viability, T/C [17] was 85.9% and the viability, T/C [18] was 81.5%. For the same compound, the viability, T/C [19] was 95.6%, the viability, T/C [20] was 107% and the viability, T/C [21] was 102%. It also gave a viability, T/C [22] of 104%, a viability, T/C [23] of 84.7% and a viability, T/C [24] of 73.3%. The viability, T/C [25] was 98.7%, the viability, T/C [26] was 104% and the viability, T/C [27] was 97.3%. The viability, T/C [28] was 100%, the viability, T/C [29] was 94.6% and the viability, T/C [30] was 83.4%. For the same compound, the viability, T/C [31] was 100%, the viability, T/C [32] was 82.3% and the viability, T/C [33] was 91.8%. For the same compound, the viability, T/C [34] was 84.8%, the viability, T/C [35] was 92.6% and the viability, T/C [36] was 77.2%.
